Laboratory results reported in patent publication US11292802B2, “Substituted tetrahydropyrrolo[1,2-a]pyrazines as alpha v integrin inhibitors” (BRISTOL-MYERS SQUIBB COMPANY, priority 2017, dated 2022).

The molecules below were run against T1, human αVβ6 (Homo sapiens, UniProt P06756+P18564) (assay: human αVβ6 HTRF binding assay). Conditions: biotinylated recombinant human αVβ6 integrin 1.25 nM, FITC-conjugated fibronectin 5 nM.
T1 construct: purchased R & D systems 3817-AV
T1 sequence (P06756 31-992 limits assumed): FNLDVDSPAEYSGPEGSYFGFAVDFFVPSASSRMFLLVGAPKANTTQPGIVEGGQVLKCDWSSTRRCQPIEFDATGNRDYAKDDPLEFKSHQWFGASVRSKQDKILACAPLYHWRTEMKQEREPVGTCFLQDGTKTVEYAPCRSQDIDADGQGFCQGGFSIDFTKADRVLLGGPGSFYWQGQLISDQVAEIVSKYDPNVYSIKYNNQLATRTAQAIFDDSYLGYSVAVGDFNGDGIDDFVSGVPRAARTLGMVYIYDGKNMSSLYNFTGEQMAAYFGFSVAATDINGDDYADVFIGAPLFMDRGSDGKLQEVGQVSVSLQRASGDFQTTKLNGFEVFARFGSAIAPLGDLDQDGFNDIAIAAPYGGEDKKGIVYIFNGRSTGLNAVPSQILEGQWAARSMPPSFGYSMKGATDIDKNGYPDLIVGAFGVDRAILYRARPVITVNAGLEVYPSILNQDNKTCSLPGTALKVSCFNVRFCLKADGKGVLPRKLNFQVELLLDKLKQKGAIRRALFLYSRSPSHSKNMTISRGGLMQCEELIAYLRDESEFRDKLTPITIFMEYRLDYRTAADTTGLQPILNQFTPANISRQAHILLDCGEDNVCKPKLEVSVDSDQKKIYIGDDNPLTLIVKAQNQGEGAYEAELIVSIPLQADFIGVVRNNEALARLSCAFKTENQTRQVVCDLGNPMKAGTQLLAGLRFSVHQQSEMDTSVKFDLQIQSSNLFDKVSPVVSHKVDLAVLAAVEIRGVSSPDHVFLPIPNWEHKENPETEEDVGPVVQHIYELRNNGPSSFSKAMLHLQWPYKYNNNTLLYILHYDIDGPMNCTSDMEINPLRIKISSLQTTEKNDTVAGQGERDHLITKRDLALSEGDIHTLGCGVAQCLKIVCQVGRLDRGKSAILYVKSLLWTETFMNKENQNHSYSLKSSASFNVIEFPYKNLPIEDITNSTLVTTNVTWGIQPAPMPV
T1 sequence (P18564 22-707 limits assumed): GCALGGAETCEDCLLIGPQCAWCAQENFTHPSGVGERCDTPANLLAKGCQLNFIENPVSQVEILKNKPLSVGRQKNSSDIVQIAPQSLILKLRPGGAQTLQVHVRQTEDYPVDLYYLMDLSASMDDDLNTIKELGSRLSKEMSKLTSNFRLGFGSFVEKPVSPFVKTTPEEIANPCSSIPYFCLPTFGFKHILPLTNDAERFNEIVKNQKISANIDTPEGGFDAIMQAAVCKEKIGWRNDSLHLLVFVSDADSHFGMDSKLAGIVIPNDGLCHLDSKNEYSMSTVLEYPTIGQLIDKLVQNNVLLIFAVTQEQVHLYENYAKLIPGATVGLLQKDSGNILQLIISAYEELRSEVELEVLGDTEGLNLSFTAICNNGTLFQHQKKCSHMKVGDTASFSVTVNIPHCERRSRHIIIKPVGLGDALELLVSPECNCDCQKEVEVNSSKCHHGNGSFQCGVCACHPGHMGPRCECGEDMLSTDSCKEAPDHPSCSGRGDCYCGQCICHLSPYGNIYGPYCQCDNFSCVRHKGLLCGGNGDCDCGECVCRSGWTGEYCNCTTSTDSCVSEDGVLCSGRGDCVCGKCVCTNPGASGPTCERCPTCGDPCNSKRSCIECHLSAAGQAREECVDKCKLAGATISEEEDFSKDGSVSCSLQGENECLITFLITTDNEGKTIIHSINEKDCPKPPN
Procedure: All binding assays used the HTRF (homogeneous time resolved fluorescence) technology from Cisbio International, therefore all assays are described as HTRF binding assays. The assay results for the Examples are listed in Table 1, exemplified by human αVβ6 (?). The HTRF binding assays are established for the following integrins: human αVβ6, human αVβ1, human αVβ3, human αVβ5, and human αVβ8. All assays used the following assay buffer: 20 mM Tris, pH 7.4, 1 mM MgCl2, 1 mM MnCl2, 0.01% Tween 20, and 0.01% BSA. Alternatively, a SPA-based assay was used for evaluation of receptor binding.
[…]
Work on COc1ccc([C@H](CC(=O)O)N2CCn3cc(C(Cc4ccc5c(n4)NCCC5)Cc4ccc5c(n4)NCCC5)cc3C2=O)cc1F [Example 10] yielded an IC50 of 1.3 nM. Cc1cc(C)c(S(=O)(=O)N[C@@H](CN2CCn3cc(CCc4ccc5c(n4)NCCC5)cc3C2=O)C(=O)O)c(C)c1 [Example 8] showed an IC50 of 25 nM. With COc1ccc([C@H](CC(=O)O)N2CCn3cc(CCCc4ccc5c(n4)NCCC5)cc3C2=O)cn1 [Example 30, (S)-3-(6-Methoxypyridin-3-yl)-3-(1-oxo-7-(3-(5,6,7,8-tetrahydro-1,8-naphthyridin-2-yl)propyl)-3,4-dihydropyrrolo[1,2-a]pyrazin-2(1H)-yl)propanoic acid] the IC50 was 1.1 nM. O=C(O)C[C@@H](c1cnc2ccccc2c1)N1CCn2cc(CCCc3ccc4c(n3)NCCC4)cc2C1=O [Example 19] gave an IC50 of 6.5 nM. For Cc1ncc([C@H](CC(=O)O)N2CCn3cc(CCCc4ccc5c(n4)NCCC5)cc3C2=O)cn1 [Example 21], the IC50 was 5.6 nM. CC(C)(C)c1cc(Br)cc([C@H](CC(=O)O)N2CCn3cc(CCc4ccc5c(n4)NCCC5)cc3C2=O)c1 [Example 5] was tested, and the IC50 was 0.59 nM. COc1ccc([C@H](CC(=O)O)N2CCn3cc(Cc4ccc5c(n4)NCCC5)cc3C2=O)cc1F [Example 29, (S)-3-(3-Fluoro-4-methoxyphenyl)-3-(1-oxo-7-((5,6,7,8-tetrahydro-1,8-naphthyridin-2-yl)methyl)-3,4-dihydropyrrolo[1,2-a]pyrazin-2(1H)-yl)propanoic acid] showed an IC50 of 0.73 nM. Molecule COc1ncc([C@H](CC(=O)O)N2CCn3cc(CCCc4ccc5c(n4)NCCC5)cc3C2=O)cn1 [Example 20] has an IC50 of 3.4 nM. O=C(N[C@@H](CN1CCn2cc(CCc3ccc4c(n3)NCCC4)cc2C1=O)C(=O)O)OCc1ccccc1 [Example 25, (S)-2-(((Benzyloxy)carbonyl)amino)-3-(1-oxo-7-(2-(5,6,7,8-tetrahydro-1,8-naphthyridin-2-yl)ethyl)-3,4-dihydropyrrolo[1,2-a]pyrazin-2(1H)-yl)propanoic acid] was tested, and the IC50 was 4.6 nM. O=C(O)C[C@@H](c1cnc2ccccc2c1)N1CCn2cc(CCc3ccc4c(n3)NCCC4)cc2C1=O [Example 16] showed an IC50 of 1.8 nM. Work on Cc1ncc(C(CC(=O)O)N2CCn3cc(CCc4ccc5c(n4)NCCC5)cc3C2=O)cn1 (stereo not shown) [Example 13] yielded an IC50 of 7.2 nM. CC(C)COc1ccc([C@H](CC(=O)O)N2CCn3cc(CCc4ccc5c(n4)NCCC5)cc3C2=O)cn1 [Example 22, (S)-3-(6-Isobutoxypyridin-3-yl)-3-(1-oxo-7-(2-(5,6,7,8-tetrahydro-1,8-naphthyridin-2-yl)ethyl)-3,4-dihydropyrrolo[1,2-a]pyrazin-2(1H)-yl)propanoic acid] showed an IC50 of 1.6 nM. Molecule O=C(O)C[C@@H](c1cc(Cl)cc(Cl)c1)N1CCn2cc(CCc3ccc4c(n3)NCCC4)cc2C1=O [Example 6] has an IC50 of 0.98 nM. “(S)-3-(3-Fluoro-4-methoxyphenyl)-3-(1-oxo-7-(4-(5,6,7,8-tetrahydro-1,8-naphthyridin-2-yl)butyl)-3,4-dihydropyrrolo[1,2-a]pyrazin-2(1H)-yl)propanoic acid, TFA [Example 32]” was tested, and the IC50 was 410 nM. Work on O=C(O)C[C@@H](c1ccc(O)c(F)c1)N1CCn2cc(CCc3ccc4c(n3)NCCC4)cc2C1=O [Example 27, (S)-3-(3-Fluoro-4-hydroxyphenyl)-3-(1-oxo-7-(2-(5,6,7,8-tetrahydro-1,8-naphthyridin-2-yl)ethyl)-3,4-dihydropyrrolo[1,2-a]pyrazin-2(1H)-yl)propanoic acid] yielded an IC50 of 4.8 nM. Molecule COc1ccc([C@H](CC(=O)O)N2CCn3cc(CCc4ccc5c(n4)NCCC5)cc3C2=O)cc1F [Example 1, (S)-3-(3-Fluoro-4-methoxyphenyl)-3-(1-oxo-7-(2-(5,6,7,8-tetrahydro-1,8-naphthyridin-2-yl)ethyl)-3,4-dihydropyrrolo[1,2-a]pyrazin-2(1H)-yl)propanoic acid] has an IC50 of 3.2 nM. COc1ccc([C@H](CC(=O)O)N2CCn3cc(CCC4CCc5cccnc5N4)cc3C2=O)cn1 (single isomer, unassigned) [Example 12] showed an IC50 of 3.2 nM. In the case of COc1ccc([C@H](CC(=O)O)N2CCn3cc(CCC4CCc5cccnc5N4)cc3C2=O)cn1 (mixture of isomers) [Example 9], the IC50 is reported as 0.6 nM. COc1ccc([C@H](CC(=O)O)N2CCn3cc(-c4ccc5c(n4)NCCC5)cc3C2=O)cc1F [Example 28, (S)-3-(3-Fluoro-4-methoxyphenyl)-3-(1-oxo-7-(5,6,7,8-tetrahydro-1,8-naphthyridin-2-yl)-3,4-dihydropyrrolo[1,2-a]pyrazin-2(1H)-yl)propanoic acid] showed an IC50 of 340 nM. Molecule COc1ccc([C@H](CC(=O)O)N2CCn3cc(CCC4CCc5cccnc5N4)cc3C2=O)cn1 (single isomer, unassigned) [Example 11] has an IC50 of 2.3 nM. With COc1ccc([C@H](CC(=O)O)N2CCn3c(cc(CCc4ccc5c(n4)NCCC5)c3I)C2=O)cc1F [Example 26, (S)-3-(3-Fluoro-4-methoxyphenyl)-3-(6-iodo-1-oxo-7-(2-(5,6,7,8-tetrahydro-1,8-naphthyridin-2-yl)ethyl)-3,4-dihydropyrrolo[1,2-a]pyrazin-2(1H)-yl)propanoic acid] the IC50 was 53 nM. With O=C(O)CC(c1cncnc1)N1CCn2cc(CCc3ccc4c(n3)NCCC4)cc2C1=O (stereo not shown) [Example 15] the IC50 was 23 nM. Work on O=C(O)CC(c1cnc2ccccc2n1)N1CCn2cc(CCc3ccc4c(n3)NCCC4)cc2C1=O (stereo not shown) [Example 18] yielded an IC50 of 140 nM. With COc1ccc([C@H](CC(=O)O)N2CCn3c(cc(CCc4ccc5c(n4)NCCC5)c3C)C2=O)cc1F [Example 7] the IC50 was 69 nM. In the case of COc1ccc([C@H](CC(=O)O)N2CCn3cc(CCC4CCc5cccnc5N4)cc3C2=O)cc1F (mixture of isomers) [Example 2, (3S)-3-(3-Fluoro-4-methoxyphenyl)-3-(1-oxo-7-(2-(1,2,3,4-tetrahydro-1,8-naphthyridin-2-yl)ethyl)-3,4-dihydropyrrolo[1,2-a]pyrazin-2(1H)-yl)propanoic acid], the IC50 is reported as 0.51 nM. COc1ccc([C@H](CC(=O)O)N2CCn3cc(CCCCc4ccc5c(n4)NCCC5)cc3C2=O)cc1F [Example 31, (S)-3-(3-Fluoro-4-methoxyphenyl)-3-(1-oxo-7-(4-(5,6,7,8-tetrahydro-1,8-naphthyridin-2-yl)butyl)-3,4-dihydropyrrolo[1,2-a]pyrazin-2(1H)-yl)propanoic acid] was tested, and the IC50 was 12 nM. COc1ccc([C@@H](CC(=O)O)N2CCn3cc(CCc4ccc5c(n4)NCCC5)cc3C2=O)cc1F [Example 4] gave an IC50 of 80 nM. With CCOc1ccc([C@H](CC(=O)O)N2CCn3cc(CCc4ccc5c(n4)NCCC5)cc3C2=O)cn1 [Example 23, (S)-3-(6-Ethoxypyridin-3-yl)-3-(1-oxo-7-(2-(5,6,7,8-tetrahydro-1,8-naphthyridin-2-yl)ethyl)-3,4-dihydropyrrolo[1,2-a]pyrazin-2(1H)-yl)propanoic acid] the IC50 was 1.6 nM. Work on O=C(O)C[C@@H](c1ccc(OCC2CC2)nc1)N1CCn2cc(CCc3ccc4c(n3)NCCC4)cc2C1=O [Example 24, (S)-3-(6-(Cyclopropylmethoxy)pyridin-3-yl)-3-(1-oxo-7-(2-(5,6,7,8-tetrahydro-1,8-naphthyridin-2-yl)ethyl)-3,4-dihydropyrrolo[1,2-a]pyrazin-2(1H)-yl)propanoic acid] yielded an IC50 of 1.6 nM. Work on O=C(O)C[C@@H](c1ccc2c(c1)OCC2)N1CCn2cc(CCc3ccc4c(n3)NCCC4)cc2C1=O [Example 17] yielded an IC50 of 2.6 nM. COc1ccc([C@H](CC(=O)O)N2CCn3cc(CCc4ccc5c(n4)NCCC5)cc3C2=O)cn1 [Example 3, (S)-3-(6-Methoxypyridin-3-yl)-3-(1-oxo-7-(2-(5,6,7,8-tetrahydro-1,8-naphthyridin-2-yl)ethyl)-3,4-dihydropyrrolo[1,2-a]pyrazin-2(1H)-yl)propanoic acid] gave an IC50 of 2.4 nM.
